Test results published in US6919350B2 (priority 1996, dated 2005).
Where “and” joins values, the source holds several entries; their conditions need not be identical. Identical values can stand only once. Entries after “also recorded” stand apart in the source; their conditions may differ. Like-named read-outs stand apart in the source and are kept apart here.

Key:
[1] = biological target: T1, delta opioid receptor in the mouse vas deferens (Mus musculus, UniProt P32300); assay: Electrically stimulated mouse vas deferens, delta opioid agonist potency (ED50)
T1 construct: Vasa deferentia were removed from mice; from tissue; host or cells: mouse vas deferens (isolated organ bath)

[2] = biological target: T2, delta opioid receptor (Rattus norvegicus, UniProt P33533); assay: Delta receptor binding in rat brain membranes (Delta Receptor IC50)
T2 construct: Rat (Sprague-Dawley) brain membranes were prepared; from tissue; host or cells: rat (Sprague-Dawley) brain membranes
Protocol: The assay procedures used for such determinations of delta receptor activity are set out below.
Inhibition of receptor binding: Rat (Sprague-Dawley) brain membranes were prepared and binding assays were performed at 24° C. for 90 minutes as described by Chang, et al. (J. Biol. Chem. 254, 2610 (1979) and Mol. Pharmacol. 16, 91 (1979)) with a filtration method (GF/C filter). Delta receptor binding assays were performed with (^3H)-(+)-4-((α-R*)-α-((2S*,5R*)-4-Allyl-2,5-dimethyl-1-piperazinyl)-3-hydroxybenzyl)-N,N-diethylbenzamide (0.1 nM), having an activity of ˜48 Ci/mmole, or with ^3H-[D-Pen^2,D-Pen^5-(enkephalin)](^3H-DPDPE, 0.1 nM) having an activity of ˜50 Ci/mmole. Non-specific binding was determined in the presence of 1 mM of the unlabeled ligand. The potency of compounds in inhibiting the binding of (^3H)-(+)-4-((α-R*)-α-((2S*,5R*)-4-Allyl-2,5-dimethyl-1-piperazinyl)-3-hydroxy-benzyl)-N,N-diethylbenzamide or ^3H-DPDPE was determined as the concentration which reduced the binding of the labeled compounds by 50 percent (Delta Receptor IC50).

[3] = test system: rats; settings: rat, in vivo, iv
[4] = test system: rats; assay: Tail-pinch analgesia during alfenta infusion with delta agonist (Example 14); type: in vivo, rat; settings: continuous i.v. infusion of alfenta and i.v. bolus of various doses
Protocol: Analgesia was also assessed with a tail-pinch method at the same time points that blood was drawn.

[5] = biological target: T1, delta opioid receptor in the mouse vas deferens; assay: Antagonist potency (pA2, Schild analysis) in electrically stimulated mouse vas deferens
Protocol: In vitro bioassays: Vasa deferentia were removed from mice and suspended between platinum electrodes with 0.5 g of tension in organ bath chambers containing a modified Krebs' buffer of the following composition (millimolar): NaCl, 118; KCl, 4.75; CaCl2, 2.6; KH2PO4, 1.20; NaHCO3, 24.5; and glucose, 11. The buffer was saturated with 95% O2/5% CO2 and kept at 37° C. Tissues were stimulated at supramaximal voltage with 10 Hz pulse trains for 400 msec.; train interval 10 seconds; and 0.5 msec pulse duration. […] The ED50 values were extrapolated from curves showing the dose concentration plotted against the response (Lord, et al., Nature 267, 495, (1977)).

[6] = in vivo; settings: rat, iv
[7] = test system: rats; assay: animal or person; type: in vivo; settings: Rattus norvegicus, iv, read-out: ED50 to produce analgesia
[8] = inhibition of electrically induced muscle contractions, read-out: Mouse Vas Deferens ED50
[9] = rat brain membranes, radioligand 3H-[D-Pen2,D-Pen5]-(enkephalin) 0.1 nM, read-out: Delta Receptor IC50
[10] = blockade of inhibitory effect of [D-Ala2,D-Leu5] enkephalin (footnote b)

T1 sequence (P32300 whole entry): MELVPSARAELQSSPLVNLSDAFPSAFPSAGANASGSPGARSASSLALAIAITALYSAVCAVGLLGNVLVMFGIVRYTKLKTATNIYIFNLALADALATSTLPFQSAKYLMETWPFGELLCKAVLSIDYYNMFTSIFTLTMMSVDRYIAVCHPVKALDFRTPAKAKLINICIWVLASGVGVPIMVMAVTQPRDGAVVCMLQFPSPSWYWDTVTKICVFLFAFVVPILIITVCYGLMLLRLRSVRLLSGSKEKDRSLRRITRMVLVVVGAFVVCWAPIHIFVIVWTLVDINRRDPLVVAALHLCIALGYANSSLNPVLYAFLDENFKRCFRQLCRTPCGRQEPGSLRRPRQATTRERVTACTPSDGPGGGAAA
T2 sequence (P33533 whole entry): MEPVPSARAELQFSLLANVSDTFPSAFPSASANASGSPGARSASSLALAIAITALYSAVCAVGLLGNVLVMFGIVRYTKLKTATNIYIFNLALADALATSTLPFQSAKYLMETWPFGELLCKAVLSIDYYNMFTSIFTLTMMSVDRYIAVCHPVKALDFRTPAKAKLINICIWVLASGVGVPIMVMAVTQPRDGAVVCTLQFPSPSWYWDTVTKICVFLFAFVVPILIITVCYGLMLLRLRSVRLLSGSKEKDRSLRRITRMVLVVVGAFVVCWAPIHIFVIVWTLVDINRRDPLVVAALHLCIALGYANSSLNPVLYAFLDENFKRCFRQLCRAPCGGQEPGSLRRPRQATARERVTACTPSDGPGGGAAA

Question: Which results are given for `C=CCN1C[C@H](C)N([C@@H](c2cccc(O)c2)c2cccc(C(N)=O)c2)C[C@H]1C` (relative stereo) [Compound 6, (±)-3-((αR*)-α-((2S*,5R*)-4-Allyl-2,5-dimethyl-1-piperazinyl)-3-hydroxybenzyl)-benzamide]?
Answer: EC50 [1, 8]: 25 nM; IC50 [2, 9]: 4 nM

Question: Which EC50 [1, 8] does the source give for `C[C@H]1CN([C@H](c2ccc(C(=O)N3CCCCC3)cc2)c2cccc(O)c2)[C@@H](C)CN1C` [Compound 12, 3-((αR)-4-(piperidinocarbonyl)-α-((2S,5S)-2,4,5-trimethyl-1-piperazinyl)benzyl)phenol] here?
Answer: 250 nM

Question: And the IC50 [2, 9]?
Answer: 1.2 nM

Question: With `C=CCN1C[C@H](C)N([C@H](c2ccc(C(N)=O)cc2)c2cccc(O)c2)C[C@@H]1C` [Compound 5] as the compound, how does the EC50 [1, 8] read?
Answer: 260 nM

Question: What about the IC50 [2, 9] of the same compound?
Answer: 1.6 nM

Question: Which results are given for `C=CCN1C[C@@H](C)N([C@H](c2ccc(S(=O)(=O)N(C)C)cc2)c2cccc(O)c2)C[C@@H]1C` (relative stereo) [Compound 19, (±)-4-((αR*)-α-((2R*,5S*)-4-Allyl-2,5-dimethyl-1-piperazinyl)-3-hydroxybenzyl)-N,N-dimethylbenzenesulfonamide]?
Answer: EC50 [1, 8]: 37 nM; IC50 [2, 9]: 2.6 nM

Question: What does the source list for `C=CCN1C[C@H](C)N([C@H](c2ccc(C(N)=O)cc2)c2cccc(O)c2)C[C@H]1C` (relative stereo) [Compound 21, (±)-4-((αR*)-α-((2S*,5R*)-4-Allyl-2,5-dimethyl-1-piperazinyl)-3-hydroxybenzyl)benzamide]?
Answer: EC50 [1, 8]: 44 nM; IC50 [2, 9]: 1.6 nM

Question: For `CCN(CC)C(=O)c1ccc([C@H](c2cccc(O)c2)N2C[C@@H](C)NC[C@H]2C)cc1` [Compound 7, N,N-Diethyl-4-((αR)-3-hydroxy-α-((2R,5R)-2,5-dimethyl-1-piperazinyl)benzyl)benzamide], which EC50 [1, 8] is on record?
Answer: 560 nM

Question: And the IC50 [2, 9]?
Answer: 1.1 nM

Question: With `CCCN1C[C@@H](C)N([C@@H](c2ccc(C(=O)N(CC)CC)cc2)c2cccc(O)c2)C[C@H]1C` [Compound 4, (−)-4-((αS)-α-((2R,5R)-2,5-Dimethyl-4-propyl-1-piperazinyl)-3-hydroxybenzyl)-N,N-diethylbenzamide] as the compound, how does the EC50 [1, 8] read?
Answer: > 1000 nM

Question: Which IC50 [2] does the source give for `C=CCN1C[C@@H](C)N([C@@H](c2ccc(C(=O)N(CC)CC)cc2)c2cccc(O)c2)C[C@H]1C` [Compound 2, (−)-4-((αS)-α-((2R,5R)-4-Allyl-2,5-dimethyl-1-piperazinyl)-3-hydroxybenzyl)-N,N-diethylbenzamide] here?
Answer: 1 nM

Question: Which results are given for `C=CCN1C[C@@H](C)N([C@H](c2ccc(S(C)(=O)=O)cc2)c2cccc(O)c2)C[C@@H]1C` (relative stereo) [Compound 18, (±)-3-((αR*)-α-((2R*,5S*)-4-allyl-2,5-dimethyl-1-piperazinyl)-4-(methylsulfonyl)benzyl)phenol]?
Answer: EC50 [1, 8]: 250 nM; IC50 [2, 9]: 1.3 nM

Question: For `C=CCN1C[C@H](C)N([C@H](c2ccc(C(=O)N(CC)CC)cc2)c2cccc(O)c2)C[C@H]1C` [BW373U86, (+)-4-((αR)-α-((2S,5R)-4-allyl-2,5-dimethyl-1-piperazinyl)-3-hydroxybenzyl)-N,N-diethylbenzamide], which “effect on alfenta-induced respiratory depression (blood pCO2)” value [3] is on record?
Answer: dose dependently reduced the level of pCO2; also recorded: blocks the respiratory depression

Question: What about the “effect on analgesia induced by alfenta (tail-pinch)” value [4] of the same compound?
Answer: did not significantly affect the analgesia

Question: What does the source list for `CCN(C)C(=O)c1ccc([C@H](c2cccc(O)c2)N2C[C@H](C)N(C)C[C@@H]2C)cc1` [Compound 16, N-ethyl-4-((αR)-3-hydroxy-α-((2S,5S)-2,4,5-trimethyl-1-piperazinyl)benzyl)-N-methylbenzamide]?
Answer: Kb [5, 10]: 63.1 nM; IC50 [2, 9]: 3.1 nM

Question: Which EC50 [1, 8] does the source give for `C=CCN1C[C@H](C)N([C@H](c2ccccc2)c2cccc(O)c2)C[C@H]1C` (relative stereo) [Compound 20, (±)-3-((αR*)-α-((2S*,5R*)-4-Allyl-2,5-dimethyl-1-piperazinyl)benzyl)phenol] here?
Answer: 78 nM

Question: And the IC50 [2, 9]?
Answer: 1.3 nM

Question: With `CCN(CC)C(=O)c1ccc([C@H](c2cccc(O)c2)N2C[C@@H](C)N(C)C[C@H]2C)cc1` [Compound 15, N,N-diethyl-4-(3-hydroxy-(αR)-α-((2R,5R)-2,4,5-trimethyl-1-piperazinyl)benzyl)benzamide] as the compound, how does the IC50 [2, 9] read?
Answer: 2.8 nM

Question: With “3-((αR)-α-((2S,5S)-4-Allyl-2,5-dimethyl-1-piperazinyl)benzyl)phenol and 3-((αS)-α-((2S,5S)-4-Allyl-2,5-dimethyl-1-piperazinyl)benzyl)phenol [Compound 9]” as the compound, how does the EC50 [1, 8] read?
Answer: 450 nM

Question: What about the IC50 [2, 9] of the same compound?
Answer: 1.5 nM

Question: With `C/C=C\CN1[C@H](C)CN(C(c2ccc(C(=O)N(CC)CC)cc2)c2cccc(O)c2)C[C@@H]1C` (relative stereo) [Compound 17, cis-4-(α-(4-((Z)-2-butenyl)-3,5-dimethyl-1-piperazinyl)-3-hydroxybenzyl)-N,N-diethylbenzamide] as the compound, how does the Kb ([5]; blockade of inhibitory effect of (±)-4-((α-R*)-α-((2S*,5R*)-4-allyl-2,5-dimethyl-1-piperazinyl)-3-hydroxybenzyl)-N,N-diethylbenzamide (footnote c)) read?
Answer: 6.31 nM

Question: What about the IC50 [2, 9] of the same compound?
Answer: 1.5 nM

Question: For `C=CCN1C[C@@H](C)N([C@H](c2ccc(C(=O)N(CC)CC)cc2)c2cccc(O)c2)C[C@H]1C` (stereo in doubt) [Compound 1, (−)-4-((αR)-α-((2R,5R)-4-allyl-2,5-dimethyl-1-piperazinyl)-3-hydroxybenzyl)-N,N-diethylbenzamide], which EC50 [1] is on record?
Answer: 43 nM

Question: What about the IC50 [2] of the same compound?
Answer: 2 nM

Question: For `C[C@H]1CN([C@H](c2ccc(C(=O)N3CCCC3)cc2)c2cccc(O)c2)[C@@H](C)CN1C` [Compound 13, 3-((αR)-4-(1-pyrrolidinylcarbonyl)-α-((2S,5S)-2,4,5-trimethyl-1-piperazinyl)benzyl)phenol], which EC50 [1, 8] is on record?
Answer: 200 nM

Question: What about the IC50 [2, 9] of the same compound?
Answer: 0.3 nM and 0.8 nM

Question: Which melting point does the source give for `CCN(CC)C(=O)c1ccc([C@H](c2cccc(O)c2)N2C[C@H](C)N(C)C[C@H]2C)cc1` (relative stereo) [Compound 10, (±)-N,N-diethyl-4-((αR*)-3-hydroxy-α-((2R*,5S*)-2,4,5-trimethyl-1-piperazinyl)benzyl)benzamide] here?
Answer: 220 to 221 °C

Question: What about the EC50 [1, 8] of the same compound?
Answer: 90 nM

Question: And the IC50 [2, 9]?
Answer: 1.1 nM

Question: Which EC50 [1, 8] does the source give for `C=CCN1C[C@H](C)N([C@H](c2ccc(C(=O)N(C)CC)cc2)c2cccc(O)c2)C[C@@H]1C` [Compound 8, 4-((αR)-α-((2S,5S)-4-Allyl-2,5-dimethyl-1-piperazinyl)-3-hydroxybenzyl)-N-ethyl-N-methylbenzamide] here?
Answer: 30 nM

Question: And the IC50 [2, 9]?
Answer: 0.86 nM

Question: With `CCN(CC)C(=O)c1ccc([C@@H](c2cccc(O)c2)N2C[C@H](C)N(C)C[C@@H]2C)cc1` [Compound 14, (+)N,N-Diethyl-4-(3-hydroxy-(αS)-α-((2S,5S)-2,4,5-trimethyl-1-piperazinyl)benzyl)-benzamide] as the compound, how does the Kb [5, 10] read?
Answer: 79.4 nM

Question: What about the IC50 [2, 9] of the same compound?
Answer: 2 nM

Question: For `C=CCN1[C@H](C)CN(C(c2ccc(C(=O)N(CC)CC)cc2)c2cccc(O)c2)C[C@@H]1C` (mixture of isomers) [Compound 23, (±)-cis-4-(α-(4-Allyl-3,5-dimethyl-1-piperazinyl)-3-hydroxybenzyl)-N,N-diethylbenzamide], which EC50 [1, 8] is on record?
Answer: 42 nM

Question: And the IC50 [2, 9]?
Answer: 3.3 nM

Question: Which EC50 [1, 8] does the source give for “cis-4-(α-(3,5-Dimethyl-4-(methylallyl)-1-piperazinyl)-3-hydroxybenzyl)-N,N-diethylbenzamide [Compound 24]” here?
Answer: 20 nM

Question: What does the source list for `C=CCN1C[C@H](C)N([C@@H](c2cccc(O)c2)c2cccc(C(=O)N(C)c3cccc(F)c3)c2)C[C@H]1C` [Compound 3290W93]?
Answer: ED50 [6]: 2 mg/kg; ED50 [7]: 0.08 mg/kg

Question: What does the source list for `CCN(CC)C(=O)c1ccc([C@H](c2cccc(O)c2)N2C[C@H](C)NC[C@H]2C)cc1` (relative stereo) [Compound 22, (±)-4-((αR*)-α-((2R*,5S*)-2,5-Dimethyl-1-piperazinyl)-3-hydroxybenzyl)-N,N-diethylbenzamide]?
Answer: EC50 [1, 8]: 4400 nM; IC50 [2, 9]: 0.7 nM
